Several values for one entry are separate records, joined by “and”; a condition that tells them apart may be missing. Equal entries are not always repeated. Entries after “also recorded” stand apart in the source; their conditions may differ. Structures can show the parent of a compound that is named as a salt.
Legend:
human alpha3beta4 nAChR [1] = molecular target: T1, human alpha3beta4 nAChR (Homo sapiens, UniProt P30926+P32297); experiment: Agonist activity at human alpha3beta4 nAChR expressed in Xenopus oocytes (two-electrode voltage clamp); assay type: cell-based; conditions: for agonist character at nAChR alpha3beta4: in words
T1 sequence (P32297 32-505): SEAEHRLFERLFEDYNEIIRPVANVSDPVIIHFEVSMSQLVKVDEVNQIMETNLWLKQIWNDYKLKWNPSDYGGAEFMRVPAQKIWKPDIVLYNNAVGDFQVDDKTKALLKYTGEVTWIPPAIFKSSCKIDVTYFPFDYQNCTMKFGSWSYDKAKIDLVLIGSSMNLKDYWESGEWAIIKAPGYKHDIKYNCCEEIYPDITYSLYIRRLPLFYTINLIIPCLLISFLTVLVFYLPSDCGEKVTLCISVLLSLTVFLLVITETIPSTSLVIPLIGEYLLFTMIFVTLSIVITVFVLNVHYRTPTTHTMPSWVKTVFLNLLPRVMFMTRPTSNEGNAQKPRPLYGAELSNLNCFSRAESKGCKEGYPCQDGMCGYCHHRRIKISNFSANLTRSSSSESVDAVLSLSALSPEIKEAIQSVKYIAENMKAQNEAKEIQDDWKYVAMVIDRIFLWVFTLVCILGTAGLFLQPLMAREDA
T1 sequence (P30926 22-498): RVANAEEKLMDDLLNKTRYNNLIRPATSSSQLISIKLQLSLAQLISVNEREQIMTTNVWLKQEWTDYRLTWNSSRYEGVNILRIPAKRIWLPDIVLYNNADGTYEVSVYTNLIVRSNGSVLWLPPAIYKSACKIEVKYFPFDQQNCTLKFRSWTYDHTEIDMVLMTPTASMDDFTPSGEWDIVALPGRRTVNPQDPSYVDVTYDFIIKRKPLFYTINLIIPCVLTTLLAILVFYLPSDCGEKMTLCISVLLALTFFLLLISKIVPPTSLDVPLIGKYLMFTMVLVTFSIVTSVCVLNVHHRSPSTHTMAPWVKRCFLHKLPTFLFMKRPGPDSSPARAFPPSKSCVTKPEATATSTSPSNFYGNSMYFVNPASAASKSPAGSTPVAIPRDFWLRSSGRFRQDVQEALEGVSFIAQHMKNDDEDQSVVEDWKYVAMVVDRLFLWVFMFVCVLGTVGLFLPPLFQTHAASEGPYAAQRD
From the text: (§1) Agonist Preparation: See Example 1.

human alpha4beta2 nAChR [2] = molecular target: T2, human alpha4beta2 nAChR (Homo sapiens, UniProt P17787+P43681); experiment: Agonist activity at human alpha4beta2 nAChR expressed in Xenopus oocytes (two-electrode voltage clamp); assay type: cell-based; conditions: for effect on the subsequent ACh-evoked current, alpha4beta2: after the agonist concentration series; for agonist character at nAChR alpha4beta2: in words
T2 sequence (P43681 29-627 limits assumed): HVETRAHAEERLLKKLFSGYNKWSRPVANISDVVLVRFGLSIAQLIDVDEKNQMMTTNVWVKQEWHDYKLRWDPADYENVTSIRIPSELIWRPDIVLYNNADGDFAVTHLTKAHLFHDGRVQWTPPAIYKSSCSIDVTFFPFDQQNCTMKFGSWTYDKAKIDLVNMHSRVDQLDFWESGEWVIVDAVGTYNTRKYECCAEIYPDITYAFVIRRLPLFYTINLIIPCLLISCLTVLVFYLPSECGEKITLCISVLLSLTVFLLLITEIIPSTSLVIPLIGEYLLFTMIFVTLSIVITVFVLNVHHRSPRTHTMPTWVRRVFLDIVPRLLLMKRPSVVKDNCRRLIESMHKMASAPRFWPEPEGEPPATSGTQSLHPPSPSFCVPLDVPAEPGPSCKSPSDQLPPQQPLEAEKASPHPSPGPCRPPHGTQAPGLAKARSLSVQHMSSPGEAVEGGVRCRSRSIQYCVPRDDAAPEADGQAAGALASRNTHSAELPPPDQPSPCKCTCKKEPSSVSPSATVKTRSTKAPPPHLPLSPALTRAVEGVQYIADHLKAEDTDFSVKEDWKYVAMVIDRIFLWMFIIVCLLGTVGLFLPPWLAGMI
T2 sequence (P17787 26-502): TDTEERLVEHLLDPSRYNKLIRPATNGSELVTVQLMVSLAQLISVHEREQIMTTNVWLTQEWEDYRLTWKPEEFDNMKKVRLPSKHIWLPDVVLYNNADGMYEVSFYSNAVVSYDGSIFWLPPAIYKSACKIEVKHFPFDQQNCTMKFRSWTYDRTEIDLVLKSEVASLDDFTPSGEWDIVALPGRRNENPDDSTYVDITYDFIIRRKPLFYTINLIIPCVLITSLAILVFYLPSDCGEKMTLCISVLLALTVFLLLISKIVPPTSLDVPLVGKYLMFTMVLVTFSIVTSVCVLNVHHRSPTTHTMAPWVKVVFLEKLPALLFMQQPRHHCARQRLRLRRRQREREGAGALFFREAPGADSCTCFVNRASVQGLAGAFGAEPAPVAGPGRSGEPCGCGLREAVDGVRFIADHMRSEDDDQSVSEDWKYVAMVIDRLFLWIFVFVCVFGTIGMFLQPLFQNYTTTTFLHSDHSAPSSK
From the text: as §1

human alpha3beta4 nAChR [3] = molecular target: T1, human alpha3beta4 nAChR; experiment: Desensitization / antagonistic activity, cumulative exposure in the low concentration range, alpha3beta4 in Xenopus oocytes; assay type: cell-based; conditions: concentrations up to 300 nM, in words
human alpha3beta4 nAChR [4] = molecular target: T1, human alpha3beta4 nAChR; experiment: Sustained exposure to 300 uM varenicline tartrate and its recovery, alpha3beta4; assay type: cell-based; conditions: 300 uM applied during three minutes; in words
Caco-2 cells = experiment: Caco-2 cell viability, CellTiter-Glo assay; assay type: cell-based, human
Procedure: In parallel, cell viability in the presence of varenicline tartrate and/or copper chloride was determined using CellTiter-Glo assay (Promega), which measures intracellular adenosine triphosphate levels.
Cells treated with DMSO (solvent control) served as controls. Following incubation, […] of CellTiter-Glo substrate was added to each well and the samples were incubated for 10 min on a rocking platform. Following this 10 min incubation, luminescence was recorded using a POLAR star OPTIMA plate reader (BMG Labtech). Samples were run in triplicate and data is normalized with mean luminescence of DMSO only treated cells as 100% viability.
All statistical analyses were performed using GraphPad Prism (version 9, GraphPad Software, Inc.).

SARS-CoV-2 = experiment: Infection of Caco-2 cells after exposure to SARS-CoV-2 (plaque titration of supernatant); conditions: for percentage of Caco-2 cells infected with SARS-CoV-2, concentration dependence: 24 hours after exposure, MOI of 3, versus vehicle control, in words
[5] = molecular target: T3, human alpha3alpha5beta4 nAChR (Homo sapiens, UniProt P30926+P32297); experiment: Agonist activity at human alpha3alpha5beta4 nAChR expressed in Xenopus oocytes (two-electrode voltage clamp); conditions: for agonist character at nAChR alpha3alpha5beta4: in words; for EC50: EC50 at nAChR alpha3alpha5beta4, test concentrations 0.1-300 uM
T3 sequence (P32297 32-505): as the sequence (P32297 32-505) above
T3 sequence (P30532 23-468 partner): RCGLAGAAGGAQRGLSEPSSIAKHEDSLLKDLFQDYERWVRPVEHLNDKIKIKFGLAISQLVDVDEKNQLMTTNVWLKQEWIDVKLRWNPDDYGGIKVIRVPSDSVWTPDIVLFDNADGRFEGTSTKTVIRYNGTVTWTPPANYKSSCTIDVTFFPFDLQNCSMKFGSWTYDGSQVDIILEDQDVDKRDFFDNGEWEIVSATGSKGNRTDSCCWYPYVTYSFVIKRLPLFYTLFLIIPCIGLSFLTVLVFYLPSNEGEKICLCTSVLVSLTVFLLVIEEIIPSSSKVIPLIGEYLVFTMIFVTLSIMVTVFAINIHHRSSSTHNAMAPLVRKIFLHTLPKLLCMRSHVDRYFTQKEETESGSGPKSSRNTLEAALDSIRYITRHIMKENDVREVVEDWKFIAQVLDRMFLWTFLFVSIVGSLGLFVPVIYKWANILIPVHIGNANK
T3 sequence (P30926 22-498): as the sequence (P30926 22-498) above
Procedure: (§2) All experiments were carried out at human nAChRs expressed in Xenopus oocytes using the method of cDNA expression. Xenopus oocytes were prepared and injected using standard procedures.
Briefly, ovaries were harvested from Xenopus Laevis females that have been deeply anesthetized by cooling at 4° C. and Tricaine methanesulfonate (MS-222 at a concentration of 150 mg/L) in sodium bicarbonate (300 mg/L). Once anesthetized the animal was decapitated and pithed following the rules of animal rights from the Geneva canton. A small piece of ovary was isolated for immediate preparation while the remaining part was placed at 4° C. in a sterile Barth solution containing in mM NaCl 88, KCl 1, NaHCO3 2.4, HEPES 10, MgSO4·7H2O 0.82, Ca(NO3)2·4H2O 0.33, CaCl2·6H2O 0.41, at pH 7.4, and supplemented with 20 ug/ml of kanamycin, 100 unit/ml penicillin. All recordings were performed at 18° C. and cells superfused with OR2 medium containing in mM: NaCl 88, KCl 2.5, HEPES 5, CaCl2·2H2O 1.8, MgCl2·6H2O 1, pH 7.4.
(§3) Currents evoked by ACh or other agonists were recorded using an automated process equipped with standard two-electrode voltage-clamp configuration (TEVC). Data were captured and analyzed using a HiQScreen proprietary data acquisition and analysis software running under Matlab (Mathworks Inc.).
ACh was prepared as a concentrated stock solution (10^−1M) in water and then diluted in the recording medium to obtain the desired test concentration. Compounds were dissolved in OR2 as stock solution (1 mM) and the final dilution to the desired concentration was made on the day of the experiment. OR2 medium contains in mM: NaCl 88.5, KCl 2.5, HEPES 5, CaCl2·2H2 1.8, MgCl2·6H2 1, pH 7.4.
The test concentration of acetylcholine chloride was 1280 uM.
(§4) Injections of cDNAs encoding for the human alpha3beta4, alpha3alpha5beta4, alpha4beta2, and alpha7 were performed in at least 95 oocytes were performed using a proprietary automated injection and receptor expression examined at least two days later. Oocytes were poked with two electrodes and their membrane potential maintained, unless indicated, at −80 mV throughout the experiment.
A protocol to determine agonistic activity in the oocytes expressing the nAChRs was developed. The cells were exposed to a series of increasing concentrations of a compound agonist for 10 seconds each at two minute intervals. The current evoked from exposure to the agonist at each concentration was recorded. For oocytes expressing alpha7 nAChRs, exposure to the agonist was reduced to 5 seconds. This process was repeated for each agonist tested against each type of nAChR expressing cell.
Experimental Procedures: Injections of cDNAs encoding for the human alpha3beta4, alpha3alpha5beta4, alpha4beta2, alpha4alpha6beta2, and alpha7 were performed in at least 95 oocytes using a proprietary automated injection device. Cellular receptor expression was examined at least two days later. Oocytes were poked with two electrodes and their membrane potential maintained, unless indicated, at −80 mV throughout the experiment.
A protocol to determine agonistic activity in the oocytes expressing the nAChRs was developed. Oocytes expressing a nAChR subtype were exposed to a brief test pulse of acetylcholine (1280 uM) while the holding current and response was evaluated. Cells displaying robust currents were washed for 90 seconds. The cells were then exposed to a series of increasing concentrations of a nAChR agonist for 10 seconds each at two minute intervals. The nAChR agonist test concentrations were 0.1, 0.3, 1, 3, 10, 30, 100, 300 (uM). The current evoked from exposure to the agonist at each concentration was recorded.

human alpha7 nAChR [6] = molecular target: T4, human alpha7 nAChR (Homo sapiens, UniProt P36544); experiment: Agonist activity at human alpha7 nAChR expressed in Xenopus oocytes (two-electrode voltage clamp); assay type: cell-based; conditions: for agonist character at nAChR alpha7: in words
T4 sequence (P36544 23-502): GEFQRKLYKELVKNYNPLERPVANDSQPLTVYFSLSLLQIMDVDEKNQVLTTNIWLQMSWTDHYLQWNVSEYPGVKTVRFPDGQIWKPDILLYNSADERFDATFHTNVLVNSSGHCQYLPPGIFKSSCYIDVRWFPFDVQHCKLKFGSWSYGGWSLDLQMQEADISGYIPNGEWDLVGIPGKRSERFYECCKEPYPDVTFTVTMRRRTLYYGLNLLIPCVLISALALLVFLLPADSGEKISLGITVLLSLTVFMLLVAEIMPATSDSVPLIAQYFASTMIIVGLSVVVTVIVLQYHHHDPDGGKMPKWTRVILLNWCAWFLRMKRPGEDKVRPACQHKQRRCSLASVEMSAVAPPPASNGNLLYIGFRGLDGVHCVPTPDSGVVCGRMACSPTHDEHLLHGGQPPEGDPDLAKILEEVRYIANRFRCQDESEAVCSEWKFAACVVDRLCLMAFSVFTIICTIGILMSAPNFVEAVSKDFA
From the text: as §1

[7] = molecular target: human alpha4alpha6beta2 nAChR (Homo sapiens, UniProt P17787+P43681+Q15825); experiment: Agonist activity at human alpha4alpha6beta2 nAChR expressed in Xenopus oocytes (two-electrode voltage clamp); assay type: cell-based; conditions: for agonist character at nAChR alpha4alpha6beta2: in words
Chain of human alpha4alpha6beta2 nAChR (P43681 29-627 limits assumed): as the sequence (P43681 29-627 limits assumed) above
Chain of human alpha4alpha6beta2 nAChR (Q15825 26-494): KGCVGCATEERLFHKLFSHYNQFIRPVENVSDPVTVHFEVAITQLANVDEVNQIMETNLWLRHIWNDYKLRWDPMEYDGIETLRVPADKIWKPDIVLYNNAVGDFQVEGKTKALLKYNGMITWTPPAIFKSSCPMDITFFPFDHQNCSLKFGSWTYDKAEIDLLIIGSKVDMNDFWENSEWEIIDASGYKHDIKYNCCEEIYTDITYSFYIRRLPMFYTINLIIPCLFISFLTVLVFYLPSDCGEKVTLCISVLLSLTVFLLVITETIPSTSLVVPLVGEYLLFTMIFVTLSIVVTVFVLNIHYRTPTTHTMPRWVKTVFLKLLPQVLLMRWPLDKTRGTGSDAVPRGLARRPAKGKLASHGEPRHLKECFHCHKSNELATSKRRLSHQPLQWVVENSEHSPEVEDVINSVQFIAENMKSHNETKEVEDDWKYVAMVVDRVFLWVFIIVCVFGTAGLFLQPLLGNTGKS
Chain of human alpha4alpha6beta2 nAChR (P17787 26-502): as the sequence (P17787 26-502) above
From the text: as §1

[8] = Pharmacokinetics in human subjects after 28 days of intranasal administration of Compound 1 hemigalactarate salt (Example 5); assay type: in vivo
Procedure: Blood plasma for the patients was collected on Day 29 predose (time 0) and after a series of time points (10 min, 20 min, 30 min, 1 hr, 2 hrs, 4 hrs, 5 hrs, 6 hrs, 7 hrs, 8 hrs, and 24 hrs) after a single administration of drug. The blood plasma was analyzed for Compound 1.
The following pharmacokinetic parameters for Compound 1 were calculated: • Cmax: Maximum observed concentration, observed by inspection of individual study participant plasma concentration time plots. • Tmax: Time of maximum observed concentration, obtained directly from the observed concentration time data. • AUClast: The area under the plasma concentration time curve, from time 0 to the last measurable non-zero concentration, calculated by a combination of linear and logarithmic trapezoidal methods (Linear up/log down method). • AUC0-4 h: The area under the plasma concentration time curve, from time 0 to the 4 h time point, calculated by a combination of linear and logarithmic trapezoidal methods (Linear up/log down method). • AUCinf: The area from zero time (pre-dose) extrapolated to infinite time (AUCinf) will be calculated as follows: AUCinf=AUClast+Cz/λz • AUC % Extrap: The percentage of AUCinf obtained by extrapolation (AUC % Extrap) will be calculated as follows: […]

[9] = molecular target: nAChR subtype alpha3beta2 (Homo sapiens, UniProt P17787+P32297); conditions: in words; no experiment described; cited from earlier work
Chain of nAChR subtype alpha3beta2 (P32297 32-505): as the sequence (P32297 32-505) above
Chain of nAChR subtype alpha3beta2 (P17787 26-502): as the sequence (P17787 26-502) above

[10] = molecular target: T3, human alpha3alpha5beta4 nAChR; experiment: Desensitization / antagonistic activity, cumulative exposure in the low concentration range, alpha3alpha5beta4 in Xenopus oocytes; assay type: cell-based; conditions: concentrations up to 300 nM; in words; dihydrate
human alpha4beta2 nAChR [11] = molecular target: T2, human alpha4beta2 nAChR; experiment: Desensitization / antagonistic activity, cumulative exposure in the low concentration range, alpha4beta2 in Xenopus oocytes; assay type: cell-based; conditions: concentrations up to 300 nM; in words; dihydrate
human alpha7 nAChR [12] = molecular target: T4, human alpha7 nAChR; experiment: Desensitization / antagonistic activity, cumulative exposure in the low concentration range, alpha7 in Xenopus oocytes; assay type: cell-based; conditions: concentrations up to 300 nM; in words; dihydrate
Procedure: as §2, §3, §4

[13] = molecular target: nAChR subtype alpha6beta2 (Homo sapiens, UniProt P17787+Q15825); conditions: in words; no experiment described; cited from earlier work
Chain of nAChR subtype alpha6beta2 (Q15825 26-494): as the sequence (Q15825 26-494) above
Chain of nAChR subtype alpha6beta2 (P17787 26-502): as the sequence (P17787 26-502) above

[14] = test concentrations 0.1-300 uM, ACh 1280 uM reference
[15] = listed as Compound 1 citrate, mono-citrate
[16] = listed as Compound 1 hemi-galactarate dihydrate, dihydrate

Molecule: varenicline tartrate [reference compound]
- agonist character at nAChR alpha3beta4 (human alpha3beta4 nAChR [1]): partial agonist
- EC50 at nAChR alpha3beta4 (human alpha3beta4 nAChR [1]; [14]): low micromolar range
- effect on the subsequent ACh-evoked current, alpha4beta2 (human alpha4beta2 nAChR [2]): major inhibition of the subsequent ACh-evoked current
- agonist character at nAChR alpha4beta2 (human alpha4beta2 nAChR [2]): partial agonist
- agonist character at nAChR alpha4beta2 (human alpha4beta2 nAChR [2]; listed as Varenicline tartrate): very poor agonist
- EC50 at nAChR alpha4beta2 (human alpha4beta2 nAChR [2]; [14]): low micromolar range
- inhibition of ACh-evoked current on sustained exposure, alpha3beta4 (human alpha3beta4 nAChR [3]): very modest effect; also recorded: no significant inhibition
- current evoked by sustained exposure, alpha3beta4 (human alpha3beta4 nAChR [4]): larger current amplitude; also recorded: rather large response
- cellular viability at 72 hours post-drug exposure (Caco-2 cells; even at 100 uM varenicline tartrate): no significant impact on cellular viability
- infection rate of the cells without copper chloride (SARS-CoV-2; 0.1 uM and 0.5 uM varenicline tartrate, 24 hours, MOI 3, normalized to untreated (FIG. 3)): ~100%
- percentage of Caco-2 cells infected with SARS-CoV-2, concentration dependence (SARS-CoV-2): dose-dependent decrease
- agonist character at nAChR alpha3alpha5beta4 [5]: partial agonist
- EC50 at nAChR alpha3alpha5beta4 [5, 14]: low micromolar range

Molecule: C(=C\[C@H]1CCNC1)/c1cncnc1 [Compound 1, (R)-5-((E)-2-pyrrolidin-3-ylvinyl)pyrimidine]
- agonist character at nAChR alpha3beta4 (human alpha3beta4 nAChR [1]): full agonist
- agonist character at nAChR alpha4beta2 (human alpha4beta2 nAChR [2]): full agonist
- agonist character at nAChR alpha7 (human alpha7 nAChR [6]): full agonist; also recorded: weak partial agonist
- agonist character at nAChR alpha4alpha6beta2 [7]: full agonist
- AUC % Extrap, Max ([8]; Day 29, N=7): 41.1%
- AUC % Extrap, Mean ([8]; Day 29, N=7): 21.3%
- AUC % Extrap, Median ([8]; Day 29, N=7): 23.3%
- AUC % Extrap, Min ([8]; Day 29, N=7): 3.69% and 3.67%
- detection in plasma ten minutes after administration ([8]; Day 29, 7 subjects): detected in plasma from all subjects
- fraction cleared from systemic circulation before the next administration ([8]; if administered every 12 hours (4 half-lives), from maximum half-life 2.83 h): > 94%
- agonist character at nAChR alpha3beta2 [9]: partial agonist
- agonist character at nAChR alpha3alpha5beta4 [5]: full agonist

Molecule: C(=C\[C@H]1CCNC1)/c1cncnc1 [compound 1 citrate, (R)-5-((E)pyrrolidin-3-ylvinyl)pyrimidine mono-citrate]
- agonist character at nAChR alpha3beta4 (human alpha3beta4 nAChR [1]; [15]): almost as a full agonist
- effect on the subsequent ACh-evoked current, alpha4beta2 (human alpha4beta2 nAChR [2]; mono-citrate): Significant inhibition of the current evoked by the second Ach exposure
- agonist character at nAChR alpha4beta2 (human alpha4beta2 nAChR [2]; [15]): almost as a full agonist
- current evoked at 300 uM, percent of the maximal ACh-evoked current, alpha7 (human alpha7 nAChR [6]; [15]): 25%
- current evoked at 300 uM, percent of the maximal ACh-evoked current, alpha7 (human alpha7 nAChR [6]; mono-citrate): 25%
- agonist character at nAChR alpha7 (human alpha7 nAChR [6]; [15]): poor agonist
- agonist character at nAChR alpha7 (human alpha7 nAChR [6]; mono-citrate): weak partial agonist
- agonist character at nAChR alpha4alpha6beta2 [7, 15]: almost as a full agonist
- EC50 ([5]; ACh 1280 uM reference): 83 ± 9.05 µM
- agonist character at nAChR alpha3alpha5beta4 [5, 15]: almost as a full agonist

Molecule: [Cl][Cu][Cl] [copper chloride]
- cellular viability at 72 hours post-drug exposure (Caco-2 cells; copper chloride concentrations of less than 1 uM): no significant impact on cellular viability
- cellular viability at 72 hours post-drug exposure (Caco-2 cells; exposures greater than 1 uM copper chloride): Some cellular toxicity
- percentage of Caco-2 cells infected with SARS-CoV-2, concentration dependence (SARS-CoV-2): dose-dependent decrease

Molecule: C(=C\[C@H]1CCNC1)/c1cncnc1 [compound 1 hemi-galactarate dihydrate, (R)-5-((E)-2-pyrrolidin-3-ylvinyl)pyrimidine hemigalactarate dihydrate]
- agonist character at nAChR alpha3beta4 (human alpha3beta4 nAChR [1]; [16]): almost as a full agonist
- current evoked, percent of the maximal ACh-evoked currents, alpha3beta4 (human alpha3beta4 nAChR [1]; maximal response): about 94%
- effect on the subsequent ACh-evoked current, alpha4beta2 (human alpha4beta2 nAChR [2]; dihydrate): enhanced the subsequent ACh-evoked currents
- agonist character at nAChR alpha4beta2 (human alpha4beta2 nAChR [2]; [16]): more potent agonist than ACh
- evoked currents larger than the maximal ACh responses, alpha4beta2 (human alpha4beta2 nAChR [2]; relative to maximal ACh response): about 2 fold
- current evoked at 300 uM, percent of the maximal ACh-evoked current, alpha7 (human alpha7 nAChR [6]; dihydrate): 24%
- agonist character at nAChR alpha7 (human alpha7 nAChR [6]; dihydrate): poor agonist
- agonist character at nAChR alpha7 (human alpha7 nAChR [6]; [16]): more potent agonist than ACh
- inhibition of ACh-evoked current on sustained exposure, alpha3beta4 (human alpha3beta4 nAChR [3]; dihydrate): insensitive; also recorded: no significant inhibition
- inhibition of ACh-evoked current on sustained exposure, alpha3alpha5beta4 [10]: marked inhibition; also recorded: inhibits in a concentration-dependent manner
- inhibition of ACh-evoked current on sustained exposure, alpha4beta2 (human alpha4beta2 nAChR [11]): marked inhibition; also recorded: inhibits in a concentration-dependent manner
- inhibition of ACh-evoked current on sustained exposure, alpha7 (human alpha7 nAChR [12]): insensitive; also recorded: no significant inhibition
- EC50 ([5]; ACh 1280 uM reference): 32.1 ± 2.16 µM
- agonist character at nAChR alpha3alpha5beta4 [5, 16]: almost as a full agonist
- current evoked, percent of the maximal ACh-evoked currents, alpha3alpha5beta4 ([5]; maximal response): about 94%

Molecule: c1cnc2cc3c(cc2n1)[C@@H]1CNC[C@H]3C1 [varenicline]
- agonist character at nAChR alpha3beta4 (human alpha3beta4 nAChR [1]): partial agonist
- agonist character at nAChR alpha4beta2 (human alpha4beta2 nAChR [2]): partial agonist
- agonist character at nAChR alpha7 (human alpha7 nAChR [6]): full agonist
- effect on the subsequent ACh-evoked current, alpha4alpha6beta2 ([7]; after the agonist concentration series): significant inhibition of the subsequent ACh-evoked current
- response compared to the ACh response, alpha4alpha6beta2 ([7]; concentrations from 0.1 uM to 300 uM): ≤ 6%
- agonist character at nAChR alpha4alpha6beta2 [7]: weak partial agonist
- agonist character at nAChR alpha6beta2 [13]: partial agonist
- agonist character at nAChR alpha3alpha5beta4 [5]: partial agonist
